Measurements reported in US6358885B1, “Substituted phenylheterocyclic herbicides” (Mississippi State University, priority 1992, dated 2002).

What was measured:
bedstraw = assay: Test C preemergence/postemergence greenhouse plant response rating 0 to 100; assay type: in vivo, Galium aparine; conditions: POSTEMERGENCE
Summary of the method: (§1)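 Compounds in non-phytotoxic solvent went onto sandy loam before emergence (seeded one day earlier) or onto plants at the one-to-four leaf stage. Duck salad was treated via flood water (~2.5 cm, maintained) over silt loam.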

giant foxtail [1] = assay: Test B preemergence/postemergence greenhouse plant response rating 0 to 10; assay type: in vivo, Setaria faberii; conditions: 0 to 10 scale
Summary of the method: (§2)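 Postemergence treatment of plants two to eighteen cm tall ran alongside preemergence treatment of planted seed, each using compound in a non-phytotoxic solvent.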

chickweed [2] = assay: Test C preemergence/postemergence greenhouse plant response rating 0 to 100; assay type: in vivo, Stellaria media; conditions: POSTEMERGENCE
Summary of the method: as §1

crabgrass [3] = assay: Test B preemergence/postemergence greenhouse plant response rating 0 to 10; assay type: in vivo, Digitaria spp.; conditions: 0 to 10 scale
Summary of the method: as §2

wheat = assay: as above; assay type: in vivo, Triticum aestivum; conditions: 0 to 10 scale
Summary of the method: as §2

giant foxtail [4] = assay: Test C preemergence/postemergence greenhouse plant response rating 0 to 100; assay type: in vivo, Setaria faberii; conditions: POSTEMERGENCE
Summary of the method: as §1

wild oat = assay: as above; assay type: in vivo, Avena fatua; conditions: POSTEMERGENCE
Summary of the method: as §1

chickweed [5] = assay: Test B preemergence/postemergence greenhouse plant response rating 0 to 10; assay type: in vivo, Stellaria media; conditions: 0 to 10 scale
Summary of the method: as §2

crabgrass [6] = assay: Test C preemergence/postemergence greenhouse plant response rating 0 to 100; assay type: in vivo, Digitaria sanguinalis; conditions: POSTEMERGENCE
Summary of the method: as §1

barley = assay: Test B preemergence/postemergence greenhouse plant response rating 0 to 10; assay type: in vivo, Hordeum vulgare; conditions: 0 to 10 scale
Summary of the method: as §2

duck salad = assay: Test C flood test plant response rating 0 to 100; assay type: in vivo, Heteranthera limosa
Summary of the method: as §1

barnyardgrass = assay: Test B preemergence/postemergence greenhouse plant response rating 0 to 10; assay type: in vivo, Echinochloa crus-galli; conditions: 0 to 10 scale
Summary of the method: as §2

rice = assay: Test C flood test plant response rating 0 to 100; assay type: in vivo, Oryza sativa
Summary of the method: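 Compounds in non-phytotoxic solvent applied preemergence to sandy loam one day after planting, postemergence at the 1–4 leaf stage, or to ~2.5 cm floodwater over silt loam.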

rape = assay: Test B preemergence/postemergence greenhouse plant response rating 0 to 10; assay type: in vivo, Brassica napus; conditions: 0 to 10 scale
Summary of the method: as §2

corn = assay: as above; assay type: in vivo, Zea mays; conditions: 0 to 10 scale
Summary of the method: as §2

downy brome = assay: Test C preemergence/postemergence greenhouse plant response rating 0 to 100; assay type: in vivo, Bromus tectorum; conditions: POSTEMERGENCE
Summary of the method: as §1

wild buckwheat = assay: as above; assay type: in vivo, Polygonum convolvulus; conditions: POSTEMERGENCE
Summary of the method: as §1

sorghum = assay: Test B preemergence/postemergence greenhouse plant response rating 0 to 10; assay type: in vivo, Sorghum bicolor; conditions: 0 to 10 scale
Summary of the method: as §2

[7] = POSTEMERGENCE section, flood test, Rate 1 g/ha
[8] = POSTEMERGENCE section, flood test, Rate 4 g/ha
[9] = Rate 16 g/ha, under POSTEMERGENCE head (flood test species)
[10] = flood test species listed under POSTEMERGENCE, 62 g/ha, 0 to 100 scale

In the case of `COCN1C(=O)COc2cc(F)c(-c3nn4c(c3Cl)CCCC4)cc21` [Compound 55], the “Plant response rating, Bedstraw” value (bedstraw; 62 g/ha, 0 to 100 scale) is reported as 100, the “Plant response rating (0 to 100), Bedstraw” value (bedstraw; Rate 1 g/ha) is reported as 30 and the “Plant response rating (0 to 100), Bedstraw” value (bedstraw; Rate 4 g/ha) is reported as 90. The “Plant response rating (0 to 100), Bedstraw” value (bedstraw; Rate 16 g/ha) was 100, the “Plant response rating, Giant foxtail” value (giant foxtail [1]; POSTEMERGENCE, Rate 10 g/ha) was 4 and the “Plant response rating, Giant foxtail” value (giant foxtail [1]; POSTEMERGENCE, Rate 50 g/ha) was 6. The “Plant response rating, Giant foxtail” value (giant foxtail [1]; PREEMERGENCE, Rate 10 g/ha) was 2, the “Plant response rating, Giant foxtail” value (giant foxtail [1]; PREEMERGENCE, Rate 50 g/ha) was 8 and the “Plant response rating, Chickweed” value (chickweed [2]; 62 g/ha, 0 to 100 scale) was 100. The “Plant response rating (0 to 100), Chickweed” value (chickweed [2]; Rate 1 g/ha) was 30, the “Plant response rating (0 to 100), Chickweed” value (chickweed [2]; Rate 4 g/ha) was 70 and the “Plant response rating (0 to 100), Chickweed” value (chickweed [2]; Rate 16 g/ha) was 100. For the same compound, the “Plant response rating, Crabgrass” value (crabgrass [3]; POSTEMERGENCE, Rate 10 g/ha) was 2, the “Plant response rating, Crabgrass” value (crabgrass [3]; POSTEMERGENCE, Rate 50 g/ha) was 3 and the “Plant response rating, Crabgrass” value (crabgrass [3]; PREEMERGENCE, Rate 10 g/ha) was 0. For the same compound, the “Plant response rating, Crabgrass” value (crabgrass [3]; PREEMERGENCE, Rate 50 g/ha) was 6, the “Plant response rating, Wheat” value (wheat; POSTEMERGENCE, Rate 10 g/ha) was 8 and the “Plant response rating, Wheat” value (wheat; POSTEMERGENCE, Rate 50 g/ha) was 6. The “Plant response rating, Wheat” value (wheat; PREEMERGENCE, Rate 50 g/ha) was 4, the “Plant response rating, Giant foxtail” value (giant foxtail [4]; 62 g/ha, 0 to 100 scale) was 50 and the “Plant response rating (0 to 100), Giant foxtail” value (giant foxtail [4]; Rate 1 g/ha) was 20. The “Plant response rating (0 to 100), Giant foxtail” value (giant foxtail [4]; Rate 4 g/ha) was 30, the “Plant response rating (0 to 100), Giant foxtail” value (giant foxtail [4]; Rate 16 g/ha) was 40 and the “Plant response rating, Wild oat” value (wild oat; 62 g/ha, 0 to 100 scale) was 60. The “Plant response rating (0 to 100), Wild oat” value (wild oat; Rate 1 g/ha) was 20, the “Plant response rating (0 to 100), Wild oat” value (wild oat; Rate 4 g/ha) was 30 and the “Plant response rating (0 to 100), Wild oat” value (wild oat; Rate 16 g/ha) was 40. For the same compound, the “Plant response rating, Chickweed” value (chickweed [5]; POSTEMERGENCE, Rate 10 g/ha) was 9, the “Plant response rating, Chickweed” value (chickweed [5]; POSTEMERGENCE, Rate 50 g/ha) was 10 and the “Plant response rating, Chickweed” value (chickweed [5]; PREEMERGENCE, Rate 10 g/ha) was 9. For the same compound, the “Plant response rating, Chickweed” value (chickweed [5]; PREEMERGENCE, Rate 50 g/ha) was 10, the “Plant response rating, Crabgrass” value (crabgrass [6]; 62 g/ha, 0 to 100 scale) was 40 and the “Plant response rating (0 to 100), Crabgrass” value (crabgrass [6]; Rate 1 g/ha) was 10. For the same compound, the “Plant response rating (0 to 100), Crabgrass” value (crabgrass [6]; Rate 4 g/ha) was 10, the “Plant response rating (0 to 100), Crabgrass” value (crabgrass [6]; Rate 16 g/ha) was 30 and the “Plant response rating, Barley” value (barley; POSTEMERGENCE, Rate 10 g/ha) was 5. For the same compound, the “Plant response rating, Barley” value (barley; POSTEMERGENCE, Rate 50 g/ha) was 4, the “Plant response rating, Barley” value (barley; PREEMERGENCE, Rate 10 g/ha) was 0 and the “Plant response rating, Barley” value (barley; PREEMERGENCE, Rate 50 g/ha) was 3. For the same compound, the “Plant response rating (0 to 100), Duck salad” value (duck salad; [7]) was 0, the “Plant response rating (0 to 100), Duck salad” value (duck salad; [8]) was 0 and the “Plant response rating (0 to 100), Duck salad” value (duck salad; [9]) was 10. For the same compound, the “Plant response rating Duck salad” value (duck salad; [10]) was 50, the “Plant response rating, Barnyardgrass” value (barnyardgrass; POSTEMERGENCE, Rate 10 g/ha) was 2 and the “Plant response rating, Barnyardgrass” value (barnyardgrass; POSTEMERGENCE, Rate 50 g/ha) was 6. For the same compound, the “Plant response rating, Barnyardgrass” value (barnyardgrass; PREEMERGENCE, Rate 10 g/ha) was 0, the “Plant response rating, Barnyardgrass” value (barnyardgrass; PREEMERGENCE, Rate 50 g/ha) was 6 and the “Plant response rating (0 to 100), Rice Japonica” value (rice; [7]) was 10. For the same compound, the “Plant response rating (0 to 100), Rice Japonica” value (rice; [8]) was 30, the “Plant response rating (0 to 100), Rice Japonica” value (rice; [9]) was 70 and the “Plant response rating Rice Japonica” value (rice; [10]) was 90. The “Plant response rating, Rape” value (rape; POSTEMERGENCE, Rate 10 g/ha) was 10, the “Plant response rating, Rape” value (rape; POSTEMERGENCE, Rate 50 g/ha) was 10 and the “Plant response rating, Rape” value (rape; PREEMERGENCE, Rate 50 g/ha) was 6. The “Plant response rating, Corn” value (corn; POSTEMERGENCE, Rate 10 g/ha) was 3, the “Plant response rating, Corn” value (corn; POSTEMERGENCE, Rate 50 g/ha) was 5 and the “Plant response rating, Corn” value (corn; PREEMERGENCE, Rate 50 g/ha) was 1. The “Plant response rating Downy Brome” value (downy brome; 62 g/ha, 0 to 100 scale) was 70, the “Plant response rating (0 to 100), Downy Brome” value (downy brome; Rate 1 g/ha) was 30 and the “Plant response rating (0 to 100), Downy Brome” value (downy brome; Rate 4 g/ha) was 40. For the same compound, the “Plant response rating (0 to 100), Downy Brome” value (downy brome; Rate 16 g/ha) was 60, the “Plant response rating, Wild buckwheat” value (wild buckwheat; 62 g/ha, 0 to 100 scale) was 100 and the “Plant response rating (0 to 100), Wild buckwheat” value (wild buckwheat; Rate 1 g/ha) was 60. For the same compound, the “Plant response rating (0 to 100), Wild buckwheat” value (wild buckwheat; Rate 4 g/ha) was 100, the “Plant response rating (0 to 100), Wild buckwheat” value (wild buckwheat; Rate 16 g/ha) was 100 and the “Plant response rating, Sorghum” value (sorghum; POSTEMERGENCE, Rate 10 g/ha) was 3. The “Plant response rating, Sorghum” value (sorghum; POSTEMERGENCE, Rate 50 g/ha) was 4 and the “Plant response rating, Sorghum” value (sorghum; PREEMERGENCE, Rate 50 g/ha) was 0.
